{
  "source": "patent US5801180A",
  "about": "“Quinazoline derivatives” (priority 1991, dated 1998)",
  "note": "Counter-ions that a name gives are not always drawn.",
  "data": [
    {"biological_target": "T1, cGMP-PDE prepared from the swine aeorta (Sus scrofa, UniProt A0A287B475)", "T1 construct": "The swine aeorta was sliced; from tissue; host or cells: swine aorta, 100000×g supernatant, DEAE-Toyopearl 650S fraction", "experiment": "Enzyme inhibiting action with the use of cGMP-PDE prepared from the swine aorta", "format": "biochemical", "conditions": "CaM-independent cGMP-PDE, 1 mM EGTA, 1 μM cGMP substrate, DMSO 4% or below", "experimental": "Enzyme inhibiting action with the use of cGMP-PDE prepared from the swine aeorta\nThe enzymatic activity of the cGMP-PDE prepared from the swine aeorta was determined according to the method of Thompson et al. ^(1). The enzymatic activity thereof was determined in the presence of 1 mM EGTA by the use of 1 μM cGMP as a substrate. The compound of the present invention was dissolved in DMSO, added to the reaction liquid and examined for the inhibitory activity. The final concentration of DMSO in the reaction liquid was adjusted to 4% or below. (1) Thompson, W. J. and Strada, S. J., Cyclic Nucleotide Phosphodiesterase (PDE), in Methods of Enzymatic Analysis, vol 4, p.127-234, 1984.\nThe swine aeorta was sliced, followed by the addition of 10 times by volume as much Buffer A (20 mM Tris/HCl, 2 mM Mg acetate, 1 mM Dithiothreitol, 5 mM EDTA, 1400 TIU/liter aprotinin, 10 mg/liter leupeptin, 1 mM benzamidine, 0.2 mM PMSF, pH 7.5). The obtained mixture was homogenized and the homogenate was centrifuged at 100000×g for one hour. The obtained supernatant was supplied a DEAE-Toyopearl 650S (Tosoh, Tokyo, Japan) column. After the column was washed with Buffer B (50 mM Tris/HCl, 0.1 mM EGTA, 2 mM Mg acetate, 1 mM Dithiothreitol, 0.2 mM PMSF, pH 7.5), gradient elution with 0.05 to 0.4M NaCl was conducted. Thus, CaM-independent cGMP-PDE fractions were obtained.", "units": {"IC50": "nM"}, "values": [
      {"smiles": "COc1ccc2nc(N3CCC(C(=O)O)CC3)nc(NCc3ccc(OC)c(Cl)c3)c2c1", "note": "[Example 234, 2-(4-Carboxypiperidino)-4-(3-chloro-4-mehtoxybenzyl)amino-6-methoxyquinazoline]", "IC50": 6},
      {"smiles": "COc1ccc2nc(C(C)C)nc(NCc3ccc4c(c3)OCO4)c2c1", "note": "[Example 82, 2-Isopropyl-4-(3,4-methylenedioxybenzyl)amino-6-methoxyquinazoline]", "IC50": 550},
      {"smiles": "COc1ccc(CNc2cc(N3CCC(C(=O)O)CC3)nc3ccc(Cl)cc23)cc1Cl", "note": "[Example 256, 2-(4-Carboxypiperidino)-4-(3-chloro-4-methoxybenzyl)amino-6-chloroquinoline]", "IC50": 2.1},
      {"smiles": "N#Cc1ccc2nc(N3CCC(O)CC3)nc(NCc3ccc4c(c3)OCO4)c2c1", "note": "[Example 184, 2-(4-Hydroxypiperidino)-4-(3,4-methylenedioxybenzyl)amino-6-cyanoquinazoline]", "IC50": 6},
      {"smiles": "COc1ccc2ncnc(NCc3ccc4c(c3)OCO4)c2c1", "note": "[Example 46, 4-(3,4-Methylenedioxybenzyl)amino-6-methoxyquinazoline]", "IC50": 240},
      {"smiles": "COc1ccc2ncnc(NCc3ccc4c(c3)OCO4)c2c1OC", "note": "[Example 72, 4-(4-Methylenedioxybenzyl)amino-5,6-dimethoxyquinazoline]", "IC50": 730},
      {"smiles": "O=C(O)C1CCN(c2nc(NCc3ccc4c(c3)OCO4)c3cc(Br)ccc3n2)CC1", "note": "[Example 376]", "IC50": 21},
      {"smiles": "CN(CCO)c1nc(NCc2ccc3c(c2)OCO3)c2cc(Cl)ccc2n1", "note": "[Example 189, 2-[N-(2-Hydroxyethyl)-N-methylamino]-4-(3,4-methylenedioxybenzyl)amino-6-chloroquinazoline]", "IC50": 16},
      {"smiles": "N#Cc1ccc2nc(Cl)nc(NCc3ccc4nc[nH]c4c3)c2c1", "note": "[Example 104, 2-Chloro-4-(benzimidazol-5-yl)methylamino-6-cyanoquinazoline]", "IC50": 10},
      {"smiles": "CCOC(=O)c1nc(NCc2ccc3c(c2)OCO3)c2cc(Cl)ccc2n1", "note": "[Example 107, 2-Ethoxycarbonyl-4-(3,4-methylenedioxybenzyl)amino-6-chloroquinazoline]", "IC50": 4},
      {"smiles": "COc1ccc2nc(N3CCC(C(=O)O)CC3)nc(NCc3ccc4c(c3)OCO4)c2c1", "note": "[Example 233, 2-(4-Carboxypiperidino)-4-(3,4-methylenedioxybenzyl)amino-6-methoxyquinazoline]", "IC50": 13},
      {"smiles": "N#Cc1ccc2nc(Cl)nc(NCc3ccc4c(c3)OCO4)c2c1", "note": "[Example 93, 2-Chloro-4-(3,4-methylenedioxybenzyl)amino-6-cyanoquinazoline]", "IC50": 32},
      {"smiles": "O=C(O)CCCCCNc1nc(NCc2ccc3c(c2)OCO3)c2cc(Cl)ccc2n1", "note": "[Example 239, 2-(5-Carboxypentyl)amino-4-(3,4-methylenendioxybenzyl)amino-6-chloroquinazoline]", "IC50": 8},
      {"smiles": "COC1Cc2cc(CNc3ncnc4ccc(Cl)cc34)ccc2O1", "note": "(stereo not drawn) [Example 61, 4-(2-Methoxy-2,3-dihydrobenzofuran-5-yl)methylamino6-chloroquinazoline]", "IC50": 420},
      {"smiles": "Clc1ccc2nc(N3CCOCC3)nc(NCc3ccc4c(c3)OCO4)c2c1", "note": "[Example 182, 2-Morpholino-4-(3,4-methylenedioxybenzyl)amino-6-chloroquinazoline]", "IC50": 8},
      {"smiles": "ON=Cc1nc(NCc2ccc3c(c2)OCO3)c2cc(Cl)ccc2n1", "note": "[Example 146, 2-Hydroxyiminomethyl-4-(3,4-methylenedioxybenzyl)amino-6-chloroquinazoline]", "IC50": 15},
      {"smiles": "OC1CCN(c2nc(NCc3ccc4c(c3)OCO4)c3cc(Cl)ccc3n2)CC1", "note": "[Example 185, 2-(4-Hydroxypiperidino)-4-(3,4-methylenedioxybenzyl)amino-6-chloroquinazoline]", "IC50": 10},
      {"smiles": "N#Cc1ccc2nc(N3CCC(C(=O)O)CC3)nc(NCc3ccc4c(c3)OCO4)c2c1", "note": "[Example 227, 2-(4-Carboxypiperidino)-4-(3,4-methylenedioxybenzyl)amino-6-cyanoquinazoline]", "IC50": 2.6},
      {"smiles": "O=C(O)c1nc(NCc2ccc3c(c2)OCO3)c2cc(Cl)ccc2n1", "note": "[Example 121, 2-Carboxy-4-(3,4-methylenedioxybenzyl)amino-6-chloroquinazoline]", "IC50": 650},
      {"smiles": "Nc1nc(NCc2ccc3c(c2)OCO3)c2cc(Cl)ccc2n1", "note": "[Example 200, 2-Amino-4-(3,4-methylenedioxybenzyl)amino-6-chloroquinazoline]", "IC50": 64},
      {"smiles": "COc1ccc(CNc2nc(N3CCC(C(=O)O)CC3)nc3ccc(Cl)cc23)cc1Cl", "note": "[Example 235, 2-(4-Carboxypiperidino)-4-(3-chloro-4-methoxybenzyl)amino-6-chloroquinazoline]", "IC50": 2},
      {"smiles": "OCCOc1nc(NCc2ccc3c(c2)OCO3)c2cc(Cl)ccc2n1", "note": "[Example 168]", "IC50": 11},
      {"smiles": "Clc1ccc2ncnc(NCc3ccc(Cl)c(Cl)c3)c2c1", "note": "[Example 58, 4-(3,4-Dichlorobenzyl)amino-6-chloroquinazoline]", "IC50": 42},
      {"smiles": "COCCN(Cc1ccc2c(c1)OCO2)c1ncnc2c(OC)c(OC)c(OC)cc12", "note": "[Example 42, 4-[N-(2-Methoxyethyl)-(3,4-methylenedioxybenzyl)-amino]-6,7,8-trimethoxyquinazoline]", "IC50": 190},
      {"smiles": "CCCOc1ccccc1-c1nc(NCc2ccc3c(c2)OCO3)c2ccccc2n1", "note": "[Example 84, 2-(2-Propoxyphenyl)-4-(3,4-methylenedioxybenzyl)aminoquinazoline]", "IC50": 220},
      {"smiles": "COc1ccc(CNc2nc(/C=C/C(=O)O)nc3ccc(Cl)cc23)cc1Cl", "note": "[Example 124, (E)-2-(2-carboxyvinyl)-4-(3-chloro-4-methoxybenzyl)amino-6-chloroquinazoline]", "IC50": 8},
      {"smiles": "O=C(O)C1CCN(c2nc3ccc(Cl)cc3n2Cc2ccc3c(c2)OCO3)CC1", "note": "[Example 280, 2-(4-Carboxypiperidino)-6-chloro-1-(3,4-methylenedioxybenzyl)benzimidazole]", "IC50": 250},
      {"smiles": "COc1cc2c(NCc3ccc4c(c3)OCO4)nc(/C=C(/C)C(=O)O)nc2c(OC)c1OC", "note": "[Example 128, (Z)-2-(2-Carboxy-1-propenyl)-4-(3,4-methylenedioxybenzyl)amino-6,7,8-trimethoxyquinazoline]", "IC50": 300},
      {"smiles": "Oc1nc(NCc2ccc3c(c2)OCO3)c2cc(Cl)ccc2n1", "note": "[Example 177, 2-Hydroxy-4-(3,4-methylenedioxybenzyl)amino-6-chloroquinazoline]", "IC50": 12},
      {"smiles": "CNC(=O)Nc1nc(NCc2ccc3c(c2)OCO3)c2cc(Cl)ccc2n1", "note": "[Example 202, 2-(Methylcarbamoyl)amino-4-(3,4-methylenedioxybenzyl)amino-6-chloroquinazoline]", "IC50": 2},
      {"smiles": "O=C(O)/C=C/c1nc(NCc2ccc3c(c2)OCO3)c2cc(Cl)ccc2n1", "note": "[Example 122, (E)-2-(2-Carboxyvinyl)-4-(3,4-methylenedioxybenzyl)amino-6-chloroquinazoline]", "IC50": 5},
      {"smiles": "CCOC(=O)C1CCN(c2nc(NCc3ccc4c(c3)OCO4)c3cc(Cl)ccc3n2)CC1", "note": "[Example 206, 2-(4-Ethoxycarbonylpiperidino)-4-(3,4-methylenedioxybenzyl)amino-6-chloroquinazoline hydrochloride]", "IC50": 29},
      {"smiles": "COc1cc2c(NCc3ccc4c(c3)OCO4)nc(/C=C(\\C)C(=O)O)nc2c(OC)c1OC", "note": "[Example 127, (E)-2-(2-Carboxy-1-propenyl)-4-(3,4-methylenedioxybenzyl)amino-6,7,8-trimethoxyquinazoline]", "IC50": 110},
      {"smiles": "CCOC(=O)C1CCN(c2nc(NCc3ccc(OC)c(Cl)c3)c3cc(C#N)ccc3n2)CC1", "note": "[Example 208, 2-(4-Ethoxycarbonylpiperidino)-4-(3-chloro-4-methoxybenzyl)amino-6-cyanoquinazoline]", "IC50": 0.19},
      {"smiles": "OCCCCOc1nc(NCc2ccc3c(c2)OCO3)c2cc(Cl)ccc2n1", "note": "[Example 174, 2-(4-Hydroxybutoxy)-4-(3,4-methylenedioxybenzyl)amino-6-chloroquinazoline]", "IC50": 4},
      {"smiles": "CCCCNC(=O)Nc1nc(NCc2ccc3c(c2)OCO3)c2cc(Cl)ccc2n1", "note": "[Example 204, 2-(n-Butylcarbamoyl)amino-4-(3,4-methylenedioxybenzyl)amino-6-chloroquinazoline]", "IC50": 4},
      {"smiles": "O=C(O)C1CCN(c2nc(NCc3ccc4c(c3)OCO4)c3cccnc3n2)CC1", "note": "[Example 262]", "IC50": 880},
      {"smiles": "CCOC(=O)CCCN(C)c1nc(NCc2ccc(OC)c(Cl)c2)c2cc(C#N)ccc2n1", "note": "[Example 220]", "IC50": 0.24},
      {"smiles": "Cc1ccc2ncnc(NCc3ccc4c(c3)OCO4)c2c1", "note": "[Example 69, 4-(3,4-Methylenedioxybenzyl)amino-6-methylquinazoline]", "IC50": 190},
      {"smiles": "CCCOc1nc(NCc2ccc3c(c2)OCO3)c2cc(OC)c(OC)c(OC)c2n1", "note": "[Example 172, 2-Propoxy-4-(3,4-methylenedioxybenzyl)amino-6,7,8-trimethoxyquinazoline]", "IC50": 95},
      {"smiles": "COc1nc(NCc2ccc3c(c2)OCO3)c2cc(OC)c(OC)c(OC)c2n1", "note": "[Example 167, 2,7,8-Tetramethoxy-4-(3,4-methylenedioxybenzyl)aminoquinazoline]", "IC50": 560},
      {"smiles": "CSc1ccc2ncnc(N(CCO)Cc3ccc4c(c3)OCO4)c2c1", "note": "[Example 54, 4-[N-(2-Hydroxyethyl)-(3,4-methylenedioxybenzyl)amino]-6-methylthioquinazoline]", "IC50": 470}
    ]}
  ]
}
